Test results published in PMC4077696 (PLoS Biology, 2014).
Counter-ions that a name gives are not always drawn.

Experiments:
[1] = tested on: P. falciparum NF54 expressing PMVHA-glmS; assay: Dose-response growth assay of parasites expressing PMVHA-glmS or PMVHA-M9 with or without GlcN; format: cell-based, Plasmodium falciparum
Description: Parasites expressing PMVHA-glmS were next assessed for toxicity to 916.
(§1) In the case of dose-response curves, medium was kept for the entire experiment; in the case of curves in Figure 4B,C, medium was replaced with inhibitor-free medium at 48 h postinfection. Parasitaemia was always determined at 72 h by flow cytometry. To knock down PMV, GlcN (Sigma) was added to trophozoites and drug curves initiated by adding compound at subsequent rings (24 h) for 24–72 h.

[2] = tested on: P. falciparum overexpressing PvPMVHA; assay: Dose-response growth assay of parasites overexpressing PvPMVHA; format: cell-based, Plasmodium falciparum
Description: We next investigated the possible effects of PMV overexpression on parasite sensitivity to 916. […] To control for the carriage of episomes and selection on WR99210, sensitivity to 916 was compared between parasites overexpressing a similar construct on episomes on WR99210 selection (encoding miniVarHA; see Figure 1F).
as §1

Structure (SMILES): CC(C)C[C@H](NC(=O)[C@@H](NC(=O)[C@H](CCCNC(=N)N)NS(=O)(=O)Cc1ccccc1)C(C)C)[C@@H](O)CC(=O)NCCc1ccccc1 [compound 916, PhCH2SO2-Arg(NH2)-Val-Sta-NH(CH2)2Ph .TFA]
- Decrease in EC50 in presence of GlcN, PMVHA-M9 control ([1]; PMVHA-M9 (inactive glmS), with versus without GlcN): 1.4 fold
- Decrease in EC50 following PMV knockdown ([1]; PMVHA-glmS, 6 mM GlcN versus no GlcN, 72 h): 3.3 fold
- Increase in EC50 with PvPMVHA overexpression versus miniVarHA control ([2]; 5 nM WR99210 selection): 1.9 fold
- Increase in EC50 with PvPMVHA overexpression versus wild-type 3D7 ([2]; wild-type 3D7 without WR99210 selection): 1.4 fold
